“Also recorded” adds a separate entry of the source.
Experiments:
[1] = test system: Bleomycin-induced idiopathic pulmonary fibrosis model in male C57BL/6 mice; assay: Bleomycin-induced idiopathic pulmonary fibrosis model; assay type: in vivo; conditions: 10 mg/kg, i.p., once daily from day 14 to 28
Protocol: Compound 17 was made-up fresh every 4 days. A required amount of the test compound was weighed in a glass vial and the purity factor was calculated. A stock solution of 1 mg/ml (10 mg/kg) was made in distilled water (pH 8) and the subsequent 3 and 1 mg/kg doses (concentrations) were obtained by serial dilution of the 1 mg/ml stock solution. A clear and transparent solution was observed. Animals were dosed with Compound 17 at 1 mg/kg, 3 mg/kg and 10 mg/kg, i.p (intraperitoneal), once daily from day 14 to 28.
Pirfenidone was weighed in a glass vial and suspended in 0.5% methyl cellulose to obtain a 10 mg/ml formulation. A clear homogenous suspension was observed. Animals were dosed with Pirfenidone at 100 mg/kg, p.o., b.i.d., from day 14 to 28.

[2] = test system: IL-6; assay: LPS/cytokine assay (mouse inflammation assay), IL-6; assay type: in vivo, CD-1 male mice
Protocol: Table 2b also includes additional biological data of compounds described herein. The LPS/cytokine Assay was carried out in CD-1 male mice. The assay measured the level of various cytokines, including IL-6, IL-17, and IL-23, after induction by bacterial liposaccharide (LPS). Compounds were dosed by IP or IV routes of administration at varying times before and after LPS and the cytokine concentrations were measured at varying times, typically 6 hrs, after LPS by standard methods using ELISA kits.
BIOLOGICAL TESTING: Compounds 10 and 17 from Table 1 were tested in a mouse inflammation assay. Briefly, CD-1 mice were dosed with compound, 12 hrs before injecting mice I.P. with the potent cytokine inducer, bacterial lipopolysaccharide (LPS). The mice were euthanized 6 hrs after the LPS was injected and their serum prepared by standard methods. The concentration of IL-6 in the serum of each experimental animal was measured using an IL-6 ELISA kit from Enzo. The compounds tested were active.
This LPS/cytokine assay was carried out in healthy mice and measured the level of cytokine IL-6, IL-17, and 23 induction by LPS. Compounds are dosed (either orally (“p.o.”) or intravenously (“i.v.”) at varying times before and after LPS, and the cytokines are measured at varying times after LPS. The effect of the tested compounds (Table 5) on IL-6 release is shown in FIG. 7. The effect of the tested compounds (Table 6) on IL-17 an IL-23 release is shown in FIG. 11 and FIG. 12, respectively.

[3] = molecular target: GSNOR enzyme (Homo sapiens, UniProt P11766); assay: GSNOR inhibition assay (rate of NADH consumption, 340 nm absorbance); assay type: biochemical; conditions: Table 2b; read-out: IC50 Micromolar
Sequence of GSNOR enzyme (P11766 whole entry): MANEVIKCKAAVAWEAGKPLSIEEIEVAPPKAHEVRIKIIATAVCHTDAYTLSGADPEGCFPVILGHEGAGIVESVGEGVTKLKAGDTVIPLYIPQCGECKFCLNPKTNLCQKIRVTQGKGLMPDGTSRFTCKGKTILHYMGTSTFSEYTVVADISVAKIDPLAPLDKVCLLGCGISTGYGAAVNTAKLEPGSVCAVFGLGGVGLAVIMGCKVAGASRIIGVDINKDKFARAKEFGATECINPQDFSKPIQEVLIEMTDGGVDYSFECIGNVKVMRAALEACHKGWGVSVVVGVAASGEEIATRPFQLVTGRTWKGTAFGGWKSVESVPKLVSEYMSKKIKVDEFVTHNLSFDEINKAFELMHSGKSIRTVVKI

[4] = test system: db/db mice; assay: Insulin and glucose tolerance tests, survival and 8-isoprostane in db/db diabetic mice; assay type: in vivo
Protocol: Compound 17 was studied in 6 week intra-gastric insulin and glucose tolerance tests in db/db mice dosed orally with Compound 17 at 10 mg/kg for 6 weeks qd. The male db/db mice were started on study at 6 weeks of age and were given a 60% high fat diet to increase the diabetic phenotype.
Vascular reactivity: Db/db mouse aorta segments were equilibrated in oxygenated PBS (95% O2 and 5% CO2) at 37° C. Following equilibration, 1 μM phenylephrine was added to each ring for submaximal contraction. After stabilization, Compound 17 was added to the rings and the effect on the muscle tone of the aorta segments was monitored with a tensometer as dose-responses from 10^-8 M to 10^-5 M for acetylcholine (“Ach”) and A23187 (5-(methylamino)-2-({(2R,3R,6S,8S,9R,11R)-3,9,11-trimethyl-8-[(1S)-1-methyl-2-oxo-2-(1H-pyrrol-2-yl)ethyl]-1,7-dioxaspiro[5.5]undec-2-yl}methyl)-1,3-benzoxazole-4-carboxylic). 8-Isoprostane was measured in plasma and heart homogenates by standard Elisa methods.

[5] = test system: collagen induced arthritis model in DBAJ1 mice; assay: Collagen induced arthritis model; assay type: in vivo; conditions: 15 mg/kg daily from day 8
Protocol: Compound 17 was tested in a collagen induced arthritis model in DBAJ1 mice. Compound 17 was started on day 8 when the arthritis was established, as in a therapeutic model, and the DBAJ1 mice were then treated daily with Compound 17 (15 mg/kg). Mice were challenged with bovine collagen II+complete adjuvant at day 0. Clinical scores were determined as follows: 0=normal; 0.5=erythema and edema in only one digit; 1=erythema and mild edema of the footpad, or ankle or two to five digits; 2=erythema and moderate edema of two joints (footpad, ankle, two to five digits); 3=erythema and severe edema of the entire paw; 4=reduced swelling and deformation leading to an incapacitated limb.
Measurement of anti-collagen antibodies in the collagen induced arthritis model of rheumatoid arthritis in DBAJ1 Mice was by an anti-collagen ELISA kit by standard methods.

## NC(=O)CCn1c2ccc(-n3ccnc3)cc2c2ccc(CCC(=O)O)cc21 [Compound 17, 3-(imidazol-1(H)-yl)-7-(2-carboxylethyl)-9(H)-(2-aminocarbonylethyl) carbazole]
[1]
  pulmonary fibrosis (Ashcroft score and percentage collagen proportionate area) vs disease control: notable mitigation of pulmonary fibrosis; also recorded: decreased lung fibrosis
[2]; CD-1 male mice, IP or IV, cytokine typically 6 hrs after LPS
  LPS/IL6 Lowest tested active: 0.03 mg/kg
[2]; dosed 12 hrs before LPS I.P., serum 6 hrs after LPS
  IL-6 in serum after LPS (mouse inflammation assay): active
[3]
  IC50: 1000 to 5000 nM
[4]; 10 mg/kg orally qd for 6 weeks, 60% high fat diet
  insulin and glucose tolerances: statistically significantly reduced insulin and glucose tolerances
[4]; db/db mice, vs vehicle
  amount of F2-IsoPs in cardiac tissue (myocardial 8-isoprostane): significantly reduces
  increase of survival in severely debilitated diabetic mice: 66%
[5]
  arthritis (clinical score): inhibits arthritis
[5]; ELISA
  production of anti-collagen antibodies: inhibits production of anti-collagen antibodies
